Results reported in patent US20240358841A1, “NANOMATERIALS COMPRISING TETRAVALENT LIPID COMPOUNDS” (Beam Therapeutics Inc., priority 2021, published 2024).

What was measured:
[1] = LNP encapsulation efficiency by Ribogreen assay; type: physicochemical; conditions: LNP: 47.5% ionizable lipid, 40% cholesterol, 2.5% PEG-2000 DMG, 10% DPSC, N/P 4-8
Protocol: (§1) LNPs were prepared with 47.5% Ionizable Lipid (e.g., a compound provided herein): 40% cholesterol: 2.5% PEG-2000 DMG; and 10% DPSC and an N/P ratio range of 4-8. LNPs were formed by microfluidic mixing of the lipid and NA solutions using a Precision Nanosystems NanoAssemblr Spark or Benchtop series Instruments, according to the manufacturers protocol. A ratio of aqueous to organic solvent of approximately 2:1 or 3:1 was maintained during mixing using differential flow rates. After mixing, LNPs were collected, diluted in phosphate buffer saline (PBS) or Tris-buffered saline (TBS) (approximately 1:1 v/v). Further buffer exchange was conducted using dialysis in PBS or TBS at 4° C. for 4 to 24 hours against a 20 kDa filter. After this initial dialysis, each individual LNP preparation was characterized via dynamic light scattering (DLS) to measure the size (e.g., diameter) and polydispersity. LNPs falling within specific diameter and polydispersity ranges were pooled, and further dialyzed against PBS or TBS at 4° C. for 1 to 4 hours against a 100 kDa dialysis cassette. After the second dialysis, LNPs were sterile filtered using 0.22 μm filter and stored at 4° C. for further use.
RNA concentration and encapsulation efficiency were determined by Ribogreen assay (BioTek Synergy LX plate reader).

[2] = LNP hydrodynamic diameter and polydispersity index by dynamic light scattering (DLS); type: physicochemical; conditions: LNP: 47.5% ionizable lipid, 40% cholesterol, 2.5% PEG-2000 DMG, 10% DPSC, N/P 4-8
Protocol: as §1
LNP hydrodynamic diameter and polydispersity index (PDI) were measured using high throughput dynamic light scattering (DLS) (Stunner, Unchained Labs). LNPs were diluted 1×TBS or PBS to an appropriate concentration and analyzed.

Liver = experiment: Barcoded pooled LNP biodistribution screen, fold above input (FAI) in liver; type: in vivo; conditions: pooled LNP IV tail vein, mice, 4 hours post-dose
Protocol: (§2) Male and female mice aged approximately 8-12 weeks were used for studies described by the present Example. Each mouse was temporarily restrained and pooled LNP was administered IV via tail vein injection in up to five animals per experiment. Age-matched mice was also used to administer vehicle (1×TBS) via tail vein injection in up to three animals per experiment. Additional routes of administration can also be conducted including intracerebral ventricular (ICV), intracisterna manga (ICM), intrathecal (IT), intramuscular (IM), nebulization, intranasal (IN), subcutaneous (SC), intraarticular, and intradermal (ID). At 4 hours post-dose, tissues including liver, spleen, bone marrow, testes, gastrocnemius, quadricep, lung, heart, kidney, and pancreas may be collected for analysis.
(§3) Liver, kidney, lung, and muscle (e.g. skeletal and cardiac) tissues may be mechanically, and then enzymatically digested using a mixture of proteinases, then passed through a 70 μm filter to generate single cell suspensions. Spleen tissues were mechanically digested to generate single cell suspensions. Tissues were treated with ACK buffer to lyse red blood cells, and then stained with fluorescently labeled antibodies for flow cytometry and fluorescence-activated cell sorting (FACS). Commercially available antibodies were used in the present example. Using a BD FACSMelody (Becton Dickinson), samples were acquired via flow cytometry to generate gates prior to sorting. […]
(§4) To screen for preferential LNP delivery to a target tissues, the relative abundance of each barcode in one or more target tissues was measured and compared to the relative abundance of each barcode to its corresponding relative input abundance to determine fold above input (FAI) for each barcode. […]
(§5) The FAI is the normalized relative abundance of a barcode in a selected sample as compared to its frequency in the input. […] The FAI value of the barcode was calculated by normalizing the relative abundance in the barcode sequence counts in the isolated samples to its relative abundance in the administration input. […]

Spleen = experiment: Barcoded pooled LNP biodistribution screen, fold above input (FAI) in spleen; type: in vivo; conditions: pooled LNP IV tail vein, mice, 4 hours post-dose
Protocol: as §2, §3, §4, §5

Lung = experiment: Barcoded pooled LNP biodistribution screen, fold above input (FAI) in lung; type: in vivo; conditions: pooled LNP IV tail vein, mice, 4 hours post-dose
Protocol: as §2
Liver, kidney, lung, and muscle (e.g. skeletal and cardiac) tissues may be mechanically, and then enzymatically digested using a mixture of proteinases, then passed through a 70 μm filter to generate single cell suspensions. Spleen tissues were mechanically digested to generate single cell suspensions. Tissues were treated with ACK buffer to lyse red blood cells, and then stained with fluorescently labeled antibodies for flow cytometry and fluorescence-activated cell sorting (FACS). Commercially available antibodies were used in the present example. Using a BD FACSMelody (Becton Dickinson), samples were acquired via flow cytometry to generate gates prior to sorting. In general, the gating structure was size→singlet cells→live cells→cells of interest. T cells were defined as CD45+CD3+, monocytes are defined as CD45+CD11b+, and B cells are defined as CD45+CD19+. Endothelial cells were defined as CD31+, monocytes and Kupffer cells as CD45+CD11b+ and hepatocytes and myocytes were defined as CD31−/CD45− in the liver and muscle, respectively. Tissues from vehicle-dosed mice were used to set the gates for sorting.
RNA from tissues were extracted using the Reliaprep RNA extraction kit, and libraries were prepared using the RNAseq kit, and sequenced on either a MiSeq or NextSeq500.
as §4, §5

[3] = screening experiment of Table 4
[4] = screening experiment of Table 5
[5] = screening experiment of Table 6

| SMILES | Mean Encapsulation Efficiency (%) [1] | Mean Diameter (nm) [2] | Mean PDI [2] | FAI (Liver) (Liver; [3]) | FAI (Liver) (Liver; [4]) | FAI (Liver) (Liver; [5]) | FAI (Spleen) (Spleen; [3]) | FAI (Spleen) (Spleen; [4]) | FAI (Spleen) (Spleen; [5]) | FAI (Lung) (Lung; screening experiment of Table 3) | FAI (Lung) (Lung; [3]) | FAI (Lung) (Lung; [4]) | FAI (Lung) (Lung; [5]) |
| --- | --- | --- | --- | --- | --- | --- | --- | --- | --- | --- | --- | --- | --- |
| CC/C=C\CCCCOC(CCC(=O)OCC(COC(=O)CCCCCCC/C=C\C/C=C\CCCCC)(COC(=O)CCCCCCC/C=C\C/C=C\CCCCC)COC(=O)OCC1CCCN(CC)C1)OCCCC/C=C\CC (stereo not shown) [Compound 7-68, 2-(((4,4-bis(((Z)-oct-5-en-1-yl)oxy)butanoyl)oxy)methyl)-2-(((((1-ethylpiperidin-3-yl)methoxy)carbonyl)oxy)methyl)propane-1,3-diyl (9Z,9′Z,12Z,12′Z)-bis(octadeca-9,12-dienoate)] | 90.0% | 92.9 nm | 0.14 | – | – | – | – | – | – | – | – | – | – |
| CC/C=C\CCCCOC(CCC(=O)OCC(COC(=O)CCCCCCC/C=C\C/C=C\CCCCC)(COC(=O)CCCCCCC/C=C\C/C=C\CCCCC)COC(=O)OCCCN(C)CC)OCCCC/C=C\CC [Compound 7-69, 2-(((4,4-bis(((Z)-oct-5-en-1-yl)oxy)butanoyl)oxy)methyl)-2-((((3-(ethyl(methyl)amino)propoxy)carbonyl)oxy)methyl)propane-1,3-diyl (9Z,9′Z,12Z,12′Z)-bis(octadeca-9,12-dienoate)] | 88.5% | 86.1 nm | 0.15 | – | – | – | – | – | – | – | – | – | – |
| CC/C=C\CCCCOC(CCC(=O)OCC(COC(=O)CCCCCCC/C=C\C/C=C\CCCCC)(COC(=O)CCCCCCC/C=C\C/C=C\CCCCC)COC(=O)NCCN1CCCC1)OCCCC/C=C\CC [Compound 7-70, 2-(((4,4-bis(((Z)-oct-5-en-1-yl)oxy)butanoyl)oxy)methyl)-2-((((2-(pyrrolidin-1-yl)ethyl)carbamoyl)oxy)methyl)propane-1,3-diyl (9Z,9′Z,12Z,12′Z)-bis(octadeca-9,12-dienoate)] | 87.0% | 88.8 nm | 0.13 | – | – | – | – | – | – | – | – | – | – |
| CCCCC/C=C\C/C=C\CCCCCCCCC(CCCCCCCC/C=C\C/C=C\CCCCC)OC(=O)CCCN(C)C [MC3] | – | – | – | 1.00 | 0.30 | 0.73 | 1.57 | 0.61 | 1.50 | 0.50 | 0.86 | 1.51 | 1.68 |
